Square brackets hold non-standard residues; d marks the D form. Ends that are not written are not given here. pGlu = O=C1CC[C@@H](C(=O)O)N1
What was measured:
panelists = assay: Attribute perception scores of flavor enhancers in solution (Example 6); assay type: in vivo, human; set-up: key to Metallic / Numbing / Atringent / Salt / Sweet / Sour / Bitter / Umami / Sour, mean evaluation score in solution / Numbing, mean evaluation score in solution / Astringent / Umami FF: 15-point intensity scale, 0 = none, 15 = very strong; conditions: for Astringent / Bitter / Flinty/Mineral / Metallic / Numbing / Salt / Sour / Sweet / Umami / Umami FF / Atringent / Mineral/Flinty / Umami/brothy: solution
Procedure: Descriptive attributes (e.g., taste, flavor and chemical feeling factors) of three use levels of pGlu-Cys (FE-35), pGlu-Cys-Gly (FE-36), pGlu-Cys-Cys (FE-37), pGlu-Cys-Val (FE-38) and pGlu-Val-Cys (UE-30) flavor composition peptides were determined. The three use levels were as follows: 1.0 ppb, 10.0 ppb and 100.0 ppb.
Data was collected for the attributes of the product in-mouth for the use levels according to the following protocol: • The samples were analyzed for flavor by six to nine members of a panel, trained and experienced in flavor evaluation using the Spectrum™ method. Samples were evaluated across multiple panel sessions. • The strength of each attribute was rated on a 15-point scale, where 0=none and 15=very strong. • This scale incorporates the ability to use tenths of a point and therefore has the potential of 150 scale differentiations. • The scale may be expanded beyond 15 points to include extreme ratings if necessary.
A summary of the concentrations of NaCl, water and flavor composition peptides in the solution samples is described in table 24.
The panelists evaluated each sample for the attributes described by table 25.

panel of trained tasters = assay: Saltiness of sodium-reduced pasta sauce with peptides, panel of trained tasters; assay type: in vivo, human
Procedure: Food product compositions were prepared by admixing flavor composition peptide(s) of the present application with food compositions, wherein the level of sodium (NaCl) in the food product compositions was reduced. The level of sodium was reduced by 25%, 50% or 75% compared to food products compositions that were not admixed with flavor composition peptides. The food product compositions comprising the flavor composition peptides were tasted by a panel of trained tasters and the level of saltiness was compared to the control food products.
The peptides pGlu-Val-Leu (identified as “SE-13”), pGlu-Val-Cys (identified as “UE-30”) and pGlu-Val-Val (identified as “SE-17”) were tested in Pasta Sauce. The control pasta sauce comprised 540 mg sodium (NaCl) in a 125 g serving.

[1] = 1.0 to 100 ppb, listed as FE 38
[2] = 10.0 ppb, mean evaluation score
[3] = 100.0 ppb, mean evaluation score
[4] = Concentration 1, MAX, 15-point scale
[5] = Concentration 1, MEAN, 15-point scale
[6] = Concentration 1, MIN, 15-point scale
[7] = Concentration 10, MAX, 15-point scale
[8] = Concentration 10, MEAN, 15-point scale
[9] = Concentration 10, MIN, 15-point scale
[10] = Concentration 100, MAX, 15-point scale
[11] = Concentration 100, MEAN, 15-point scale
[12] = Concentration 100, MIN, 15-point scale

[pGlu]-Cys-Val [FE-38]
Mineral/Flinty aromatic in solution as the concentration increases (panelists; 1.0 to 100 ppb): increases very slightly | Salt perception level in solution as the concentration increases (panelists; 1.0 to 100 ppb): increase very slightly in-mouth at 10 ppb | Umami aromatic in solution as the concentration increases (panelists; 1.0 to 100 ppb): increase very slightly in-mouth at 10 ppb | Umami feeling factor in solution as the concentration increases (panelists; 1.0 to 100 ppb): shows no distinct pattern | Mineral/Flinty aromatic in solution as the concentration increases (panelists; [1]): increase very slightly | Salt perception level in solution as the concentration increases (panelists; [1]): increase very slightly | Umami aromatic in solution as the concentration increases (panelists; [1]): increase very slightly | Astringent (panelists; 1.0 ppb, mean evaluation score): 0.0 | Bitter (panelists; 1.0 ppb, mean evaluation score): 0.0 | Flinty/Mineral (panelists; 1.0 ppb, mean evaluation score): 1.0 | Metallic (panelists; 1.0 ppb, mean evaluation score): 0.0 | Numbing (panelists; 1.0 ppb, mean evaluation score): 0.0 | Salt (panelists; 1.0 ppb, mean evaluation score): 3.1 | Sour (panelists; 1.0 ppb, mean evaluation score): 0.0 | Sweet (panelists; 1.0 ppb, mean evaluation score): 0.0 | Umami (panelists; 1.0 ppb, mean evaluation score): 0.2 | Umami FF (panelists; 1.0 ppb, mean evaluation score): 0.7 | Astringent (panelists; [2]): 0.0 | Bitter (panelists; [2]): 0.2 | Flinty/Mineral (panelists; [2]): 1.1 | Metallic (panelists; [2]): 0.0 | Numbing (panelists; [2]): 0.0 | Salt (panelists; [2]): 3.7 | Sour (panelists; [2]): 0.0 | Sweet (panelists; [2]): 0.2 | Umami (panelists; [2]): 0.5 | Umami FF (panelists; [2]): 1.8 | Astringent (panelists; [3]): 0.0 | Bitter (panelists; [3]): 0.2 | Flinty/Mineral (panelists; [3]): 1.3 | Metallic (panelists; [3]): 0.0 | Numbing (panelists; [3]): 0.0 | Salt (panelists; [3]): 3.7 | Sour (panelists; [3]): 0.0 | Sweet (panelists; [3]): 0.2 | Umami (panelists; [3]): 0.5 | Umami FF (panelists; [3]): 1.7 | Atringent (panelists; [4]): 0.0 | Bitter (panelists; [4]): 0.0 | Metallic (panelists; [4]): 0.0 | Mineral/Flinty (panelists; [4]): 1.5 | Numbing (panelists; [4]): 0.0 | Salt (panelists; [4]): 3.5 | Sour (panelists; [4]): 0.0 | Sweet (panelists; [4]): 0.0 | Umami (panelists; [4]): 1.0 | Umami/brothy (panelists; [4]): 1.0 | Atringent (panelists; [5]): 0.0 | Bitter (panelists; [5]): 0.0 | Metallic (panelists; [5]): 0.0 | Mineral/Flinty (panelists; [5]): 1.0 | Numbing (panelists; [5]): 0.0 | Salt (panelists; [5]): 3.1 | Sour (panelists; [5]): 0.0 | Sweet (panelists; [5]): 0.0 | Umami (panelists; [5]): 0.7 | Umami/brothy (panelists; [5]): 0.2 | Atringent (panelists; [6]): 0.0 | Bitter (panelists; [6]): 0.0 | Metallic (panelists; [6]): 0.0 | Mineral/Flinty (panelists; [6]): 0.5 | Numbing (panelists; [6]): 0.0 | Salt (panelists; [6]): 2.8 | Sour (panelists; [6]): 0.0 | Sweet (panelists; [6]): 0.0 | Umami (panelists; [6]): 0.0 | Umami/brothy (panelists; [6]): 0.0 | Atringent (panelists; [7]): 0.0 | Bitter (panelists; [7]): 0.8 | Metallic (panelists; [7]): 0.0 | Mineral/Flinty (panelists; [7]): 1.5 | Numbing (panelists; [7]): 0.0 | Salt (panelists; [7]): 4.0 | Sour (panelists; [7]): 0.0 | Sweet (panelists; [7]): 1.0 | Umami (panelists; [7]): 3.0 | Umami/brothy (panelists; [7]): 1.0 | Atringent (panelists; [8]): 0.0 | Bitter (panelists; [8]): 0.2 | Metallic (panelists; [8]): 0.0 | Mineral/Flinty (panelists; [8]): 1.1 | Numbing (panelists; [8]): 0.0 | Salt (panelists; [8]): 3.7 | Sour (panelists; [8]): 0.0 | Sweet (panelists; [8]): 0.2 | Umami (panelists; [8]): 1.8 | Umami/brothy (panelists; [8]): 0.5 | Atringent (panelists; [9]): 0.0 | Bitter (panelists; [9]): 0.0 | Metallic (panelists; [9]): 0.0 | Mineral/Flinty (panelists; [9]): 0.8 | Numbing (panelists; [9]): 0.0 | Salt (panelists; [9]): 3.0 | Sour (panelists; [9]): 0.0 | Sweet (panelists; [9]): 0.0 | Umami (panelists; [9]): 0.0 | Umami/brothy (panelists; [9]): 0.0 | Atringent (panelists; [10]): 0.0 | Bitter (panelists; [10]): 0.8 | Metallic (panelists; [10]): 0.0 | Mineral/Flinty (panelists; [10]): 1.5 | Numbing (panelists; [10]): 0.0 | Salt (panelists; [10]): 4.0 | Sour (panelists; [10]): 0.0 | Sweet (panelists; [10]): 1.0 | Umami (panelists; [10]): 3.8 | Umami/brothy (panelists; [10]): 1.0 | Atringent (panelists; [11]): 0.0 | Bitter (panelists; [11]): 0.2 | Metallic (panelists; [11]): 0.0 | Mineral/Flinty (panelists; [11]): 1.3 | Numbing (panelists; [11]): 0.0 | Salt (panelists; [11]): 3.7 | Sour (panelists; [11]): 0.0 | Sweet (panelists; [11]): 0.2 | Umami (panelists; [11]): 1.7 | Umami/brothy (panelists; [11]): 0.5 | Atringent (panelists; [12]): 0.0 | Bitter (panelists; [12]): 0.0 | Metallic (panelists; [12]): 0.0 | Mineral/Flinty (panelists; [12]): 0.8 | Numbing (panelists; [12]): 0.0 | Salt (panelists; [12]): 3.5 | Sour (panelists; [12]): 0.0 | Sweet (panelists; [12]): 0.0 | Umami (panelists; [12]): 0.5 | Umami/brothy (panelists; [12]): 0.0

[pGlu]-Val-Leu [SE-13]
Saltiness compared to control at 25% reduction (panel of trained tasters; 25% sodium reduction, 10 and 1 ppb, n=4): to control, slightly less salty. | Saltiness compared to control (panel of trained tasters; control 540 mg Na/serving, test 25, 50, 75% reduction, 10 ppb and 1 ppb, n=4): Test variables perceived less

[pGlu]-Val-Val [SE-17]
Saltiness compared to control (panel of trained tasters; control 540 mg, test 405 mg Na, SE-13 or SE-17 10 ppb, UE-30 1 ppb, n=4): significantly less salty than | Salt enhancement (panel of trained tasters; test 405 mg Na, SE-17 10 ppb, UE-30 1 ppb): UE-30 did not provide a big

From patent US10856562B2, “Flavor composition and edible compositions containing same” (MARS, INCORPORATED, priority 2013, dated 2020)
